Measured values as given in publication PMC9127750, “Structure-based design of CDC42 effector interaction inhibitors for the treatment of cancer” (Cell reports, 2022).
Several values for one entry are separate records, joined by “and”; a condition that tells them apart may be missing. Equal values may be shown once.

Tested on: WM3248 melanoma cells, 486 antibodies
Assay: Reverse phase protein arrays (RPPA)
Type: cell-based, Human
Source text: Pellets were snap frozen in liquid nitrogen and shipped to MD Anderson Cancer Center core RPPA facility for RPPA analysis (Table S5). Three biological replicates for each sample were generated.
Nomenclatures on the RPPA heatmaps: name_of_antibody.species_of_antibody.status_of_antibody. V - antibody validated; C - validation of antibody in progress; Q - antibody nonspecific; E – under evaluation; antibodies raised in M - mouse, G - goat, R - rabbit, or T - rat.

[1] = level 10 normalized to 0, mean of 3
[2] = level 10 normalized to 0, single replicates

CN(C)c1cccc(Nc2cc(-c3ccccc3)nc(C3CCNCC3)n2)c1 [ARN22089, N1,N1-dimethyl-N3-(6-phenyl-2-(piperidin-4-yl)pyrimidin-4-yl)benzene-1,3-diamine]
XIAP.R.C Norm_10 Average [1]: 0.978
XPA.M.V Norm_10 Average [1]: 0.978
XPF.R.C Norm_10 Average [1]: 0.977
YAP.R.C Norm_10 Average [1]: 1.029
YB1_pS102.R.V Norm_10 Average [1]: 0.937
YES1.R.V Norm_10 Average [1]: 1.017
YTHDF3.R.C Norm_10 Average [1]: 1.101
ZAP.70.R.V Norm_10 Average [1]: 0.957
ZEB1.R.V Norm_10 Average [1]: 0.964
TSC1.R.C Norm_10_1 to Norm_10_3 [2]: 0.905 and 0.842
TTF1.R.V Norm_10_1 to Norm_10_3 [2]: 1.022 and 0.970 and 1.241
TUFM.R.V Norm_10_1 to Norm_10_3 [2]: 0.423 and 1.882 and 1.360
Tuberin.R.V Norm_10_1 to Norm_10_3 [2]: 1.169 and 0.526 and 0.811
Tuberin_pT1462.R.V Norm_10_1 to Norm_10_3 [2]: 1.492 and 0.717 and 0.984
Twist.M.C Norm_10_1 to Norm_10_3 [2]: 1.114 and 1.030
Tyro3.R.V Norm_10_1 to Norm_10_3 [2]: 1.080 and 1.777 and 1.302
U.Histone.H2B.R.C Norm_10_1 to Norm_10_3 [2]: 0.871 and 0.726
UBAC1.R.V Norm_10_1 to Norm_10_3 [2]: 0.932 and 1.030 and 1.078
UBQLN4.M.C Norm_10_1 to Norm_10_3 [2]: 0.984 and 0.918 and 0.980
UGT1A.M.V Norm_10_1 to Norm_10_3 [2]: 1.017 and 1.128 and 1.006
ULK1_pS757.R.C Norm_10_1 to Norm_10_3 [2]: 1.125 and 0.823 and 0.899
UQCRC2.M.C Norm_10_1 to Norm_10_3 [2]: 0.945 and 1.144 and 1.246
UVRAG.R.C Norm_10_1 to Norm_10_3 [2]: 1.050 and 0.851 and 0.904
VASP.R.V Norm_10_1 to Norm_10_3 [2]: 0.815 and 0.894
VAV1.R.C Norm_10_1 to Norm_10_3 [2]: 1.035 and 0.844 and 0.890
VEGFR.2.R.V Norm_10_1 to Norm_10_3 [2]: 0.901 and 0.958 and 1.012
VEGFR.2_pY1175.R.C Norm_10_1 to Norm_10_3 [2]: 0.930 and 0.993
VHL.EPPK1.M.C Norm_10_1 to Norm_10_3 [2]: 0.587 and 1.522 and 0.982
VHL.R.C Norm_10_1 to Norm_10_3 [2]: 0.900 and 0.987
Vinculin.M.V Norm_10_1 to Norm_10_3 [2]: 0.829 and 1.085 and 1.051
WIPI1.R.C Norm_10_1 to Norm_10_3 [2]: 1.210 and 1.510 and 1.234
WIPI2.R.C Norm_10_1 to Norm_10_3 [2]: 1.209 and 0.707 and 0.915
WTAP.R.V Norm_10_1 to Norm_10_3 [2]: 0.900 and 1.764 and 1.008
Wee1.R.C Norm_10_1 to Norm_10_3 [2]: 0.851 and 0.833 and 1.061
Wee1_pS642.R.C Norm_10_1 to Norm_10_3 [2]: 0.901 and 0.776 and 1.023
XBP.1.G.C Norm_10_1 to Norm_10_3 [2]: 0.989 and 1.187 and 1.403
XIAP.R.C Norm_10_1 to Norm_10_3 [2]: 1.022 and 1.000
XPA.M.V Norm_10_1 to Norm_10_3 [2]: 1.064
XPF.R.C Norm_10_1 to Norm_10_3 [2]: 0.948 and 0.944
XRCC1.R.C Norm_10_1 to Norm_10_3 [2]: 0.931 and 1.213
YAP.R.C Norm_10_1 to Norm_10_3 [2]: 0.955 and 1.252 and 0.879
YAP_pS127.R.V Norm_10_1 to Norm_10_3 [2]: 0.913 and 1.139 and 0.796
YB1_pS102.R.V Norm_10_1 to Norm_10_3 [2]: 0.840 and 1.032
YES1.R.V Norm_10_1 to Norm_10_3 [2]: 1.000 and 0.982
YTHDF2.R.V Norm_10_1 to Norm_10_3 [2]: 1.206 and 1.258
YTHDF3.R.C Norm_10_1 to Norm_10_3 [2]: 1.009 and 1.186 and 1.108
ZAP.70.R.V Norm_10_1 to Norm_10_3 [2]: 1.012 and 0.977 and 0.883
ZEB1.R.V Norm_10_1 to Norm_10_3 [2]: 0.854 and 1.114 and 0.924
HLA.DQA1.R.V Norm_10 Average (level 10 vs 0): 0.993
HLA.DR.DP.DQ.DX.R.C Norm_10 Average (level 10 vs 0): 1.057
HMHA1.R.V Norm_10 Average (level 10 vs 0): 0.922
HNRNPK.R.V Norm_10 Average (level 10 vs 0): 1.030
HSP27.M.C Norm_10 Average (level 10 vs 0): 0.958
HSP27_pS82.R.V Norm_10 Average (level 10 vs 0): 0.916
HSP60.R.V Norm_10 Average (level 10 vs 0): 0.926
HSP70.R.C Norm_10 Average (level 10 vs 0): 0.973
Hexokinase.I.R.C Norm_10 Average (level 10 vs 0): 1.225
Hexokinase.II.R.V Norm_10 Average (level 10 vs 0): 1.128
Hif.1αR.C Norm_10 Average (level 10 vs 0): 1.156
Histone.H3.R.V Norm_10 Average (level 10 vs 0): 0.957
IDO.R.C Norm_10 Average (level 10 vs 0): 0.957
IGF1R_pY1135_Y1136.R.V Norm_10 Average (level 10 vs 0): 0.918
IGFBP2.R.V Norm_10 Average (level 10 vs 0): 0.935
IGFBP3.M.V Norm_10 Average (level 10 vs 0): 0.971
IGFRb.R.C Norm_10 Average (level 10 vs 0): 0.953
IL.6.R.C Norm_10 Average (level 10 vs 0): 0.924
IMP3.R.C Norm_10 Average (level 10 vs 0): 0.953
INPP4b.R.C Norm_10 Average (level 10 vs 0): 1.029
IR.b.R.C Norm_10 Average (level 10 vs 0): 0.981
IRF.1.R.V Norm_10 Average (level 10 vs 0): 0.874
IRF.3.R.V Norm_10 Average (level 10 vs 0): 0.967
IRS1.R.V Norm_10 Average (level 10 vs 0): 0.929
IRS2.R.C Norm_10 Average (level 10 vs 0): 1.033
JAB1.M.C Norm_10 Average (level 10 vs 0): 1.009
JNK2.R.V Norm_10 Average (level 10 vs 0): 2.307
JNK_pT183_Y185.R.C Norm_10 Average (level 10 vs 0): 0.955
Jagged1.R.V Norm_10 Average (level 10 vs 0): 0.936
Jak2.R.V Norm_10 Average (level 10 vs 0): 0.959
KAP1.R.V Norm_10 Average (level 10 vs 0): 1.103
KEAP1.R.V Norm_10 Average (level 10 vs 0): 1.017
LAD1.R.V Norm_10 Average (level 10 vs 0): 0.908
LC3A.B.R.C Norm_10 Average (level 10 vs 0): 1.064
